This assay addresses T1, PPARγ-LBD (UniProt ID: P37231-2) (Homo sapiens, UniProt P37231).
T1 construct: PPARγ-LBD (UniProt ID: P37231-2) was expressed and purified in insect system; made in house
T1 sequence (P37231 238-503 limits assumed): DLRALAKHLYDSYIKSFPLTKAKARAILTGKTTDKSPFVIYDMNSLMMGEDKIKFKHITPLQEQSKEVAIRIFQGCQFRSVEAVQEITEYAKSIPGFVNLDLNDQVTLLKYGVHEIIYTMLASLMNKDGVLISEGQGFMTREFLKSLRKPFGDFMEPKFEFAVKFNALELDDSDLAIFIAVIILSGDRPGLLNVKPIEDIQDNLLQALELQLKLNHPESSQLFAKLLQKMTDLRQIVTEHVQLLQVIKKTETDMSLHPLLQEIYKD
The assay is described as follows: PPARγ-SMRT recruitment assay (TR-FRET). The assay is classed as biochemical. To be noted: for EC50: TR-FRET, SMRT peptide recruitment to PPARγ-LBD, 120 min pre-incubation; for Emax: 1 h, max value of % Activation, high control 10 uM control compound, low control 1% DMSO, read-out: Top %. On the procedure: PPARγ TR-FRET assay was initiated to evaluate potential activatory effect of the compounds of the present disclosure for SMRT recruitment to PPARγ protein. PPARγ-LBD (UniProt ID: P37231-2) was expressed and purified in insect system and stored at −80° C. in aliquots. Biotinylated SMRT peptide was synthesized (Biotin-[…]). 5 μL protein solution mixture consisting of 10 nM PPARγ-LBD and 2 nM Anti-His Eu (Cisbio, 61HISKLA) in assay buffer (25 mM HEPES pH7.4, 25 mM KCl, 1 mM EDTA, 0.01% BSA, 0.01% Tween-20, 1 mM TCEP) was added to 384-well plates containing duplicate 10-point dose response titration of compounds in 5 μL assay buffer (1% f.c. DMSO(v/v)). After 120 min pre-incubation at room temperature, 5 μL peptide solution mixture consisting of 50 nM Biotin-SMRT peptide and 25 nM Streptavidin-XL665 (Cisbio, 610SAXLA) added to plates. Plates were incubated for 60 min. and read in CLARIOstar Plus plate reader with Ex/Em 620 nm/[…]. Average TR-FRET ratio of high control (Wells with 10 uM control compound) was calculated as High Control (HC). Average TR-FRET ratio of low control (Wells with 1% DMSO) was calculated as Low control (LC). For one compound, top % is the max value of % Activation.
EC50 values were determined by fitting the data to the standard 4 parameters with Hill Slope using GraphPad Prism software. […] ND: No Determine.

The values below come from US20260274799A1, “HETEROCYCLIC DERIVATIVES, COMPOSITIONS AND USES THEREOF” (DANATLAS PHARMACEUTICALS CO., LTD., priority 2023, published 2026).

`CC(C)(C)C#Cc1c(F)cc2[nH]c(-c3cc(C#N)ccc3S(C)(=O)=O)cc(=O)c2c1F` [Example 10, 3-(6-(3,3-Dimethylbut-1-yn-1-yl)-5,7-difluoro-4-oxo-1,4-dihydroquinolin-2-yl)-4-(methylsulfonyl)benzonitrile] had a concentration for a half-maximal effect (EC50) of less than 100 nM.
As for `CS(=O)(=O)c1ccc(C#N)cc1-c1cc(=O)c2c(F)c(C#CC3(O)COC3)c(F)cc2[nH]1` [Example 7, 3-(5,7-Difluoro-6-((3-hydroxyoxetan-3-yl)ethynyl)-4-oxo-1,4-dihydroquinolin-2-yl)-4-(methylsulfonyl)benzonitrile], the Emax was 207% and the concentration giving a half-maximal response (EC50) is less than 100 nM.
Consider `CS(=O)(=O)c1ccc(C#N)cc1-c1cc(=O)c2c(F)c(C#Cc3ccccc3OC(F)F)c(F)cc2[nH]1` [Example 37, 3-(6-((2-(Difluoromethoxy)phenyl)ethynyl)-5,7-difluoro-4-oxo-1,4-dihydroquinolin-2-yl)-4-(methylsulfonyl)benzonitrile], for which the Emax turned out to be 406% and the EC50 was less than 100 nM.
In the case of `CS(=O)(=O)c1ccc(C#N)cc1-c1cc(=O)c2c(F)c(OCC3CCC3)c(F)cc2[nH]1` [Example 26, 3-(6-(Cyclobutylmethoxy)-5,7-difluoro-4-oxo-1,4-dihydroquinolin-2-yl)-4-(methylsulfonyl)benzonitrile], the EC50 is less than 100 nM.
For the compound `CS(=O)(=O)c1ccc(C#N)cc1-c1cc(=O)c2c(F)c(C3CC3)c(F)cc2[nH]1` [Example 13, 3-(6-Cyclopropyl-5,7-difluoro-4-oxo-1,4-dihydroquinolin-2-yl)-4-(methylsulfonyl)benzonitrile], the Emax is 187% and the EC50 was less than 100 nM.
Consider `CC(C)(C#Cc1c(F)cc2[nH]c(-c3cc(C#N)ccc3S(C)(=O)=O)cc(=O)c2c1F)S(C)(=O)=O` [Example 48, 3-(5,7-Difluoro-6-(3-methyl-3-(methylsulfonyl)but-1-yn-1-yl)-4-oxo-1,4-dihydroquinolin-2-yl)-4-(methylsulfonyl)benzonitrile], for which the 50% effective concentration (EC50) is less than 100 nM.
